The source of these data is paper PMC9227536, “Prediction of Pharmacokinetics of IDP-73152 in Humans Using Physiologically-Based Pharmacokinetics” (Pharmaceutics, 2022).

Read-outs that look alike come from different tables or passages of the source.

Data set [1] can be described thus: Blood partitioning (LC-MS/MS-based depletion method), mouse. It counts as in vitro ADME. To be noted: whole blood, mice blood, 0.3, 1, 3 μM, read-out: BP (blood-to-plasma concentration ratio). As for the experimental part:
In this study, the partitioning of IDP-73152 in blood samples obtained from mice, rats, dogs, and humans was determined using the LC-MS/MS-based depletion method with slight modifications. DP-73152 was added to an aliquot (1 mL) of blank blood or plasma at a final concentration of 0.3, 1, or 3 μM. The mixture was incubated at 37 °C in a water bath for 60 min. After the incubation, the plasma was separated by centrifugation of the blood samples for 5 min at 10,000× g/4 °C and stored at -80 °C until analysis. The blood-to-plasma concentration ratio (BP) was calculated using the equation:(3) BP=[…], where […] is the concentration of the compound at the corresponding blood concentration in the plasma, and CPL is the concentration from the plasma sample separated from the incubated blood.

A short description of data set [2]: Metabolic stability in liver microsomes, rat. The class given is in vitro ADME. As for the experimental part: In this study, the metabolic stability of IDP-73152 in microsomes from mice, rats, dogs, and humans, as well as rat hepatocytes, was determined. For a microsomal incubation study, the incubation mixtures, containing mouse, rat, dog, or human liver microsomes at a protein concentration of 0.5 mg/mL, 3.3 mM MgCl2, and 1.3 mM NADPH, in a 100 mM potassium phosphate buffer (pH 7.4), were preincubated for 3 min at 37 °C. In parallel, a control incubation mixture (i.e., identical composition to that of the incubation mixture without NADPH) was also prepared for comparison. The reaction was initiated by the addition of a 10 × solution of IDP-73152 (final concentration in mixtures of 1 μM) to the incubation mixtures or the control incubation mixtures. The mixtures were incubated in a shaking water bath (37 °C, 90 rpm). Aliquots (30 μL) were collected at 0, 15, 30, and 45 min from the mixture and the reaction was terminated by the addition of a 4-fold volume of ice-cold acetonitrile to the sample. The mixture was then vortexed for 5 min and centrifuged for 10 min at 10,000× g. The supernatant was collected and stored at -80 °C until the analysis. For the hepatocyte incubation study, rat hepatocytes were freshly prepared using the two-step collagenase perfusion method with slight modifications. After the isolation, cell viability during the preparation process was first determined by a trypan blue exclusion assay prior to the stability study. The preparation was considered adequate for subsequent studies if the viability was greater than 80%. When appropriate, the hepatocytes were resuspended in Williams' media E containing 10% fetal bovine serum, 1% penicillin-streptomycin, and 0.01% insulin-transferrin-selenium (i.e., 10 mg/mL insulin, 5.5 mg/mL transferrin, and 5 mg/mL selenium) at pH 7.4. The reaction was carried out with the hepatocyte suspension prepared at 1 × 10^6 cells/mL (0.5 mL) and initiated by the addition of equal volume of IDP-73152 solution (i.e., final concentration of the compound at 1 μM in 0.5 × 10^6 cells/mL of hepatocytes) to the hepatocyte suspension. […] Assuming first-order disappearance kinetics, the slope k of the logarithmically transformed IDP-73152 concentration in the sample versus time plot was determined by the linear regression analysis of the data. The total intrinsic clearance (CLint,mic, μL/min/mg protein for microsomal incubation study and CLint,hep, μL/min/million cells for hepatocytes incubation study) was then calculated using the following equations:(4) CLint, mic=k×Volume of incubation medium (μL)/Protein in incubation medium (mg) (5) CLint,hep=k×Volume of incubation (μL)/Number of cells in incubation (×10^6) The unbound intrinsic clearance, with respect to the whole liver ([…]), was then estimated for the two cases. […]
A general note: Liver microsomes are a subcellular fraction often used to study metabolism.

Data set [3] can be described thus: PK study in dogs (intravenous and oral). The class given is in vivo. As for the experimental part:
The in vivo experimental protocol was approved by the Institutional Animal Care and Use Committee of Research Laboratory at Ildong pharmaceutical Co., Ltd. (Ref. No.: IDL-PDF-001 and 09005-11004). Animals were acclimatized to the laboratory conditions for at least 1 week before the experiments and were kept in the standardized conditions (20–25 °C, 55 ± 5% humidity, and a 12 h light/dark cycle). The animals fasted overnight prior to drug administration, and food was resupplied 4 h post-dose.
Male beagle dogs (body weight 9.55–10.3 kg, Beijing Marshall Biotechnology, Beijing, China) received a single intravenous dose of 10 mg/kg IDP-73152 via the cephalic vein (i.e., the injection volume of 1 mL/kg, IDP-73152 in saline). When necessary, a single dose of IDP-73152 at 20 mg/kg was also orally administered to dogs in the form of hard gelatin capsules. Blood samples were collected from the jugular vein at 0.167, 0.33, 0.5, 1, 2, 4, and 8 h (for intravenous administration study), and 0.167, 0.33, 0.5, 1, 2, 4, 6, and 8 h (for oral administration study) after the administration. Plasma was separated/collected from the blood sample by centrifugation for 5 min at 10,000× g/4 °C and stored at −80 °C until the analysis.
When necessary for a model independent PK analysis, a standard moment analysis was carried out with WinNonlin software using either representative (for the study with mice) or individual (for the study with rats, dogs, and humans) concentration–time profile(s). For the calculation of PBPK models, Berkeley Madonna 8.3.18 (Albany, CA, USA) was used with the fourth-order Runge–Kutta method for numerical integration.

Where [4] appears, read: male, beagle, dog, plasma, dogs, oral 20 mg/kg, hard gelatin capsules.

One may read the AUC(0-inf) as total exposure, with the tail of the curve extrapolated. A lower AUC(0-inf) goes with less exposure. One may read the bioavailability as the share of a dose that reaches the circulation, judged against a reference dose that is usually intravenous. The Cmax is the peak of the concentration-time curve. As a reminder, the Tmax is the time from dosing to the highest level. For `CC(C)(C)[C@H](NC(=O)[C@H](CC1CCCC1)CN(O)C=O)C(=O)N1CCC(NCc2cc(F)c(F)cc2F)CC1` [IDP-73152], in data set [1], the blood plasma ratio at 60 min was determined as 1.31 ± 0.13. Further, in data set [2] (rat, liver microsomes, pH 7.4, rats, read-out: CLh calculated from the CLint,mic (converted)), the CLhep predicted at 1 μM is 28.2 mL/min/kg. The microsomal CLint at 1 μM in data set [2] (rat, pH 7.4, rats liver microsomes 0.5 mg/mL, 1 μM, read-out: CLint,mic) was determined as 72 ± 2.6 µL/min/mg. The “hepatic ER (extraction ratio)” value in data set [2] (rats, from microsomal clearance, well-stirred model) is given as 0.222 ± 0.006. In addition, the “CLu,int,H” value in data set [2] (rats, scaled up to the whole liver from microsomes) was 7.46 ± 0.27 L/h. In addition, the CLp in data set [3] (dogs, intravenous 10 mg/kg, 10 mg/kg) is 11.1 ± 4.32 mL/min/kg. In data set [3] (male, beagle, dog, plasma, iv, 10 mg/kg), this compound displayed an AUC(0-inf) of 16600 ± 5900 ng·h/mL. Further, the clearance in data set [3] (male, beagle, dog, plasma, iv, 10 mg/kg, dogs, intravenous 10 mg/kg, read-out: CLp (converted)) was 10.3 mL/min/kg. The Vd in data set [3] (male, beagle, dog, plasma, dogs, intravenous 10 mg/kg, moment analysis, read-out: Vss) stood at 1.15 ± 0.46 L/kg. Besides, in data set [3] (male, beagle, dog, plasma, dogs, intravenous 10 mg/kg, read-out: t1/2 (converted)), the half-life was 1.18 ± 0.14 h. In addition, the bioavailability in data set [3] (male, beagle, dog, plasma, dogs, oral 20 mg/kg vs intravenous 10 mg/kg, read-out: F (bioavailability)) came to 95.5%. Also, in data set [3] (setting [4]), the AUC(0-inf) was 31600 ± 5900 ng·h/mL, the concentration peaked (Cmax) at 10500 ± 2000 ng/mL and the time of peak concentration (Tmax) came out at 0.777 ± 0.387 h. Besides, the half-life in data set [3] (male, beagle, dog, plasma, dogs, oral 20 mg/kg, hard gelatin capsules, read-out: t1/2 (terminal phase half-life) (converted)) is 1.81 ± 0.04 h.
